Assays:
Assay in all cases: Test C preemergence
Assay type in all cases: in vivo
Conditions in all cases: scale 0 to 100, 0 no effect, 100 complete control
[1] = test system: velvetleaf (Abutilon theophrasti)
Excerpt: (§1) Seeds of plant species selected from blackgrass (Alopecurus myosuroides), ryegrass, Italian (Italian ryegrass, Lolium multiflorum), wheat (winter wheat, Triticum aestivum), Galium (catchweed bedstraw, Galium aparine), corn (Zea mays), crabgrass, large (large crabgrass, Digitaria sanguinalis), foxtail, giant (giant foxtail, Setaria faberii), johnsongrass (Sorghum halepense), lambsquarters (Chenopodium album), morningglory (Ipomoea coccinea), nutsedge, yellow (yellow nutsedge, Cyperus esculentus), pigweed (Amaranthus retroflexus), ragweed (common ragweed, Ambrosia elatior), soybean (Glycine max), barnyardgrass (Echinochloa crus-galli), oilseed rape (Brassica napus), waterhemp (common waterhemp, Amaranthus rudis) and velvetleaf (Abutilon theophrasti) were planted into a blend of loam soil and sand and treated preemergence with test chemicals formulated in a non-phytotoxic solvent mixture which included a surfactant.
(§2) At the same time, plants selected from these crop and weed species and also Kochia (Kochia scoparia), oat, wild (wild oat, Avena fatua), and chickweed (common chickweed, Stellaria media) were planted in pots containing Sunshine Redi-Earth® planting medium comprising spaghnum peat moss, vermiculite, starter nutrients and dolomitic limestone and treated with postemergence applications of test chemicals formulated in the same manner. Plants ranged in height from 2 to 18 cm (1- to 4-leaf stage) for postemergence treatments. Treated plants and controls were maintained in a greenhouse for 13 to 15 d, after which time all species were compared to controls and visually evaluated. Plant response ratings, summarized in Table C, are based on a scale of 0 to 100 where 0 is no effect and 100 is complete control. A dash (-) response means no test result.

[2] = test system: pigweed (Amaranthus retroflexus)
Excerpt: as §1, §2

corn (Zea mays) = test system: corn (Zea mays)
Excerpt: as §1, §2

[3] = test system: crabgrass, large (large crabgrass, Digitaria sanguinalis)
Excerpt: as §1, §2

[4] = test system: barnyardgrass (Echinochloa crus-galli)
Excerpt: as §1, §2

[5] = test system: foxtail, giant (giant foxtail, Setaria faberii)
Excerpt: as §1, §2

[6] = test system: waterhemp (common waterhemp, Amaranthus rudis)
Excerpt: as §1, §2

[7] = test system: oilseed rape (Brassica napus)
Excerpt: as §1, §2

[8] = test system: lambsquarters (Chenopodium album)
Excerpt: as §1, §2

[9] = test system: blackgrass (Alopecurus myosuroides)
Excerpt: as §1, §2

[10] = test system: ragweed (common ragweed, Ambrosia elatior)
Excerpt: as §1, §2

[11] = test system: johnsongrass (Sorghum halepense)
Excerpt: as §1, §2

[12] = test system: wheat (winter wheat, Triticum aestivum)
Excerpt: as §1, §2

[13] = test system: morningglory (Ipomoea coccinea)
Excerpt: as §1, §2

[14] = test system: nutsedge, yellow (yellow nutsedge, Cyperus esculentus)
Excerpt: as §1, §2

[15] = test system: ryegrass, Italian (Italian ryegrass, Lolium multiflorum)
Excerpt: as §1, §2

soybean (Glycine max) = test system: soybean (Glycine max)
Excerpt: as §1, §2

CN1CC(c2cccc(OC(F)(F)C(F)F)c2)C(C(=O)Nc2cccc(F)c2F)C1=O (stereo not drawn) [Compound 392]
Plant response rating, Velvetleaf ([1]; 62 g ai/ha): 40
Plant response rating, Velvetleaf ([1]; 125 g ai/ha): 60
Plant response rating, Velvetleaf ([1]; 250 g ai/ha): 70
Plant response rating, Pigweed ([2]; 31 g ai/ha): 75
Plant response rating, Pigweed ([2]; 62 g ai/ha): 80
Plant response rating, Pigweed ([2]; 125 g ai/ha): 85
Plant response rating, Pigweed ([2]; 250 g ai/ha): 90
Plant response rating, Corn (corn (Zea mays); 31 g ai/ha): 45
Plant response rating, Corn (corn (Zea mays); 62 g ai/ha): 65
Plant response rating, Corn (corn (Zea mays); 125 g ai/ha): 55
Plant response rating, Corn (corn (Zea mays); 250 g ai/ha): 75
Plant response rating, Crabgrass, Large ([3]; 31 g ai/ha): 90
Plant response rating, Crabgrass, Large ([3]; 62 g ai/ha): 95
Plant response rating, Crabgrass, Large ([3]; 125 g ai/ha): 95
Plant response rating, Crabgrass, Large ([3]; 250 g ai/ha): 95
Plant response rating, Barnyardgrass ([4]; 31 g ai/ha): 90
Plant response rating, Barnyardgrass ([4]; 62 g ai/ha): 90
Plant response rating, Barnyardgrass ([4]; 125 g ai/ha): 90
Plant response rating, Barnyardgrass ([4]; 250 g ai/ha): 95
Plant response rating, Foxtail, Giant ([5]; 31 g ai/ha): 90
Plant response rating, Foxtail, Giant ([5]; 62 g ai/ha): 95
Plant response rating, Foxtail, Giant ([5]; 125 g ai/ha): 95
Plant response rating, Foxtail, Giant ([5]; 250 g ai/ha): 95
Plant response rating, Waterhemp ([6]; 62 g ai/ha): 85
Plant response rating, Waterhemp ([6]; 125 g ai/ha): 90
Plant response rating, Waterhemp ([6]; 250 g ai/ha): 90
Plant response rating, Oilseed Rape ([7]; 31 g ai/ha): 70
Plant response rating, Oilseed Rape ([7]; 62 g ai/ha): 80
Plant response rating, Oilseed Rape ([7]; 125 g ai/ha): 85
Plant response rating, Oilseed Rape ([7]; 250 g ai/ha): 90
Plant response rating, Lambsquarters ([8]; 31 g ai/ha): 60
Plant response rating, Lambsquarters ([8]; 62 g ai/ha): 70
Plant response rating, Lambsquarters ([8]; 125 g ai/ha): 75
Plant response rating, Lambsquarters ([8]; 250 g ai/ha): 75
Plant response rating, Blackgrass ([9]; 31 g ai/ha): 20
Plant response rating, Blackgrass ([9]; 62 g ai/ha): 45
Plant response rating, Blackgrass ([9]; 125 g ai/ha): 70
Plant response rating, Blackgrass ([9]; 250 g ai/ha): 60
Plant response rating, Ragweed ([10]; 31 g ai/ha): 70
Plant response rating, Ragweed ([10]; 62 g ai/ha): 45
Plant response rating, Ragweed ([10]; 125 g ai/ha): 60
Plant response rating, Ragweed ([10]; 250 g ai/ha): 70
Plant response rating, Johnsongrass ([11]; 31 g ai/ha): 70
Plant response rating, Johnsongrass ([11]; 62 g ai/ha): 85
Plant response rating, Johnsongrass ([11]; 125 g ai/ha): 85
Plant response rating, Johnsongrass ([11]; 250 g ai/ha): 90
Plant response rating, Wheat ([12]; 62 g ai/ha): 35
Plant response rating, Wheat ([12]; 125 g ai/ha): 80
Plant response rating, Wheat ([12]; 250 g ai/ha): 75
Plant response rating, Morningglory ([13]; 31 g ai/ha): 0
Plant response rating, Morningglory ([13]; 62 g ai/ha): 0
Plant response rating, Morningglory ([13]; 125 g ai/ha): 0
Plant response rating, Morningglory ([13]; 250 g ai/ha): 15
Plant response rating, Nutsedge, Yellow ([14]; 31 g ai/ha): 0
Plant response rating, Nutsedge, Yellow ([14]; 62 g ai/ha): 0
Plant response rating, Nutsedge, Yellow ([14]; 125 g ai/ha): 0
Plant response rating, Nutsedge, Yellow ([14]; 250 g ai/ha): 0
Plant response rating, Ryegrass, Italian ([15]; 62 g ai/ha): 40
Plant response rating, Ryegrass, Italian ([15]; 125 g ai/ha): 55
Plant response rating, Ryegrass, Italian ([15]; 250 g ai/ha): 90
Plant response rating, Soybean (soybean (Glycine max); 62 g ai/ha): 100
Plant response rating, Soybean (soybean (Glycine max); 125 g ai/ha): 15
Plant response rating, Soybean (soybean (Glycine max); 250 g ai/ha): 5
